In one assay the target is T1, PPARγ (Homo sapiens, UniProt P37231).
T1 construct: expressed in transfected cells; host or cells: CHO-K1
T1 sequence (P37231 1-477 isoform P37231-2): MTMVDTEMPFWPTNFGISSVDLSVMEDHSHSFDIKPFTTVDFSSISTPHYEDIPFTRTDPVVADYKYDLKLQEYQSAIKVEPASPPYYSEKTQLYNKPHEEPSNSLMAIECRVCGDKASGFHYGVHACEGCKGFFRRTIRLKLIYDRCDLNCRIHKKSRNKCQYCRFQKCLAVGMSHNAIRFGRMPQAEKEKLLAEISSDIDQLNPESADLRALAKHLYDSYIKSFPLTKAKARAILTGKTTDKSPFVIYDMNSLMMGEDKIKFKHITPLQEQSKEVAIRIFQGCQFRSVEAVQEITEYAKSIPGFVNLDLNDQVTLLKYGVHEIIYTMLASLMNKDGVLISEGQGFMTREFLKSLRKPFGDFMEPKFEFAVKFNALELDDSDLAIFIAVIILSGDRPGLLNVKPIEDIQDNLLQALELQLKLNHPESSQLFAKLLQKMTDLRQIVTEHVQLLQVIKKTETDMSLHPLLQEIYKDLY
T1 sequence (P19793 1-462 partner): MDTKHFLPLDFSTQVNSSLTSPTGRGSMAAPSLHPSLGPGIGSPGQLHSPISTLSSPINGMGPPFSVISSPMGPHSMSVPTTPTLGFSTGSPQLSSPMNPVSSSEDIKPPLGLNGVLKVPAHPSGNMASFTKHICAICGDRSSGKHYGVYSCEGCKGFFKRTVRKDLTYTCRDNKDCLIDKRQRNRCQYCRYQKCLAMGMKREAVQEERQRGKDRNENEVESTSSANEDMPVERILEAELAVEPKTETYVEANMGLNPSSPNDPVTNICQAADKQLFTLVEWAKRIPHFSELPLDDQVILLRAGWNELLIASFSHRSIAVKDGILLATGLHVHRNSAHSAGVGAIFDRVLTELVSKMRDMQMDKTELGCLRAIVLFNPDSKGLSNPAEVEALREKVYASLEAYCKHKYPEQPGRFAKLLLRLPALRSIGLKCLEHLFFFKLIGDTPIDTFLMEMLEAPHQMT
Briefly: Evaluation of PPARγ activating action (luciferase reporter in PPARγ:RXRα:4ERPP/CHO-K1 cells). Type of assay: cell-based. The conditions noted are these: CHO-K1, 24 h; test compound 10^−6 M; luciferase activity relative to control compound X (1 μM) = 100%, non-administration group = 0%; read-out: PPARγ activating action (activation % (10^−6 M)). How it is done: PPARγ:RXRα:4ERPP/CHO-K1 cells obtained in the following Reference Example 5 were cultured in F12 medium [manufactured by INVITROGEN, USA] containing 10% fetal bovine serum [manufactured by MOREGATE, Australia], seeded in a 96-well half area white plate [manufactured by Corning Coster Corporation, USA] at the density of 5×10^3 cells/well and cultured in a CO2 gas incubator at 37° C. overnight.
Then the medium was removed from the 96-well half area white plate, 45 μl of Ham's F12 medium containing 0.1% fatty acid-free bovine serum albumin (BSA) and 5 μl of test compound were added, and the cells were cultured in a CO2 gas incubator at 37° C. for 1 day. The medium was removed and 20 μl of PicaGene 7.5 [manufactured by TOYO INK MFG. CO., LTD.,.Japan] diluted 2-fold with HBSS (HANKS' BALANCED SALT SOLUTION) [manufactured by BIO WHITTAKER, USA] was added. After stirring, the luciferase activity was determined using 1420 ARVO Multilabel Counter [manufactured by PerkinElmer, USA].
The percent (%) was calculated from the luciferase activity of each test compound when the luciferase activity of the control compound (compound X: 5-[3-(4-{[2-(2-furyl)-5-methyl-1,3-oxazol-4-yl]methoxy}-3-methoxyphenyl)propyl]-1,3-oxazolidine-2,4-dione) (1 μM) was 100% and that of the test compound non-administration group was 0%.
A CHO-K1 cell cultured in a 150 cm^2 cell culture flask [manufactured by Corning Costar Corporation, USA] containing Ham's F12 medium [manufactured by INVITROGEN, USA] supplemented with 10% fetal bovine serum [manufactured by INVITROGEN, USA] was scraped by treating with 0.5 g/L trypsin-0.2 g/L EDTA (ethylenediaminetetraacetic acid) [manufactured by Life Technologies, Inc., USA], and then the cell was washed with PBS (Phosphate-buffered saline) [manufactured by INVITROGEN, USA], centrifuged (1000 rpm, 5 minutes) and suspended in PBS. Subsequently, DNA was introduced into the cell under the conditions shown below using GENE PULSER [manufactured by Bio-Rad Laboratories, USA].
Namely, to a cuvette having a 0.4 cm gap were added 8×10^6 cells and 10 μg of plasmid pVgRXR2-hPPARγ obtained in Reference Example 4 and 10 μg of reporter plasmid pGL3-4ERPP-TK neo obtained in Reference Example 3, which was subjected to electroporation at the voltage of 0.25 kV under the capacitance of 960 μF. Subsequently, the cell was transferred into a F12 medium containing 10% fetal bovine serum and cultured for 24 hours, and then the cell was scraped again and centrifuged, and then suspended in Ham's F12 medium containing 10% fetal bovine serum supplemented with 500 μg/ml of Geneticin [manufactured by INVITROGEN, USA] and 250 μg/ml of Zeocin [manufactured by INVITROGEN, USA]. The obtained suspension was diluted to the density of 10^4 cells/ml and inoculated in a 96-well plate [manufactured by Corning Costar Corporation, USA], which was cultured in a CO2 gas incubator at 37° C., whereby obtaining a Geneticin- and Zeocin-resistant transformant.
Subsequently, after the transformant cell line thus obtained was cultured in a 24-well plate [manufactured by Corning Costar Corporation, USA], a cell line in which the luciferase was expressed and induced, i.e., PPARγ:RXRα:4ERPP/CHO-K1 cell was selected by the addition of 10 μM pioglitazone hydrochloride.
On the technique in general: A reporter such as luciferase makes a cellular process visible.

The next assay has as its target T2, human AT1 receptor (Homo sapiens, UniProt P30556).
T2 construct: expressed in transfected cells; host or cells: CHO-K1
T2 sequence (P30556 1-359): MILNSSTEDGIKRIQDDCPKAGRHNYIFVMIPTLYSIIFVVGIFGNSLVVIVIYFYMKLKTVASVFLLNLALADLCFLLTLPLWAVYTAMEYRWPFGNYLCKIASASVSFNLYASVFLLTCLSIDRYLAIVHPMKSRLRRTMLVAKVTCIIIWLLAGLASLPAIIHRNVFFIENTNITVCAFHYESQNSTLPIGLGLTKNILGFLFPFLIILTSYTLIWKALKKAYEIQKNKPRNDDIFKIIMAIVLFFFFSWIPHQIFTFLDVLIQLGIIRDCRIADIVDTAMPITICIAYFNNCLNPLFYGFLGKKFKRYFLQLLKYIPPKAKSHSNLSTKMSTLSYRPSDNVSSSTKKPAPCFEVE
Briefly: Binding assay using human AT1 receptor-expressing CHO-K1 cell membrane fraction ([125I]-angiotensin II). The conditions noted are these: 22.5 pM [125I]-angiotensin II, 9 μg AT1 membrane, 1 hr room temperature; read-out: AT1 receptor binding inhibitory action (IC50 (nM)). How it is done: The membrane fraction for human AT1 receptor binding assay was prepared as follows. CHO-K1 cell capable of stable expression of human AT1 receptor was cultured, recovered, suspended in homogenize buffer (10 mM NaHCO3 (pH 7.4), 5 mM EDTA, 1×Complete EDTA free) [manufactured by Roche, Switzerland], and homogenized. The homogenate was centrifuged at low-speed (900×g, 10 min, 4° C.), and the supernatant was recovered and ultracentrifuged (90,000×g, 1 hr, 4° C.). The supernatant was discarded, and the pellets were resuspended in resuspension buffer (50 mM Tris (pH 7.4), 1 mM EDTA, 1×Complete EDTA free).
The binding assay was performed in the presence of 22.5 pM [^125I]-angiotensin II [manufactured by PerkinElmer, USA], 9 μg of AT1 membrane and test compound in 100 μL (total reaction volume) of reaction buffer (50 mM Tris (pH 7.4), 10 mM MgCl2 supplemented or not supplemented with 0.3 mg/mL fatty acid-free bovine serum albumin [manufactured by Wako Pure Chemical Industries, Ltd., Japan]). The reaction mixture was incubated in 96 well polypropylene plate for 1 hr at room temperature, and the reaction was quenched by rapid filtration (96 well cell harvester) through a GF/C filter treated with wash buffer (50 mM Tris (pH 7.4)). Subsequently, the filter was washed 5 times with 0.3 mL of ice-cooled wash buffer. The filter was air-dried, and [^125I]-angiotensin II binding radioactivity was assayed with Top Count scintillation counter. Total binding was measured in the presence of 1% DMSO and nonspecific binding was measured in the presence of 1 μM CV-11974. The binding data was analyzed by GraphPad Prism program and the IC50 value (compound concentration showing 50% of the maximum value of inhibition percent) of the test compound was calculated.

The values below come from patent US20100056526A1, “HETEROMONOCYCLIC COMPOUND AND USE THEREOF” (Takeda Pharmaceutical Company Limited, priority 2006, published 2010).

As a reminder, the IC50 is the concentration that gives 50% inhibition.

In the case of `CCSc1nc(C)c(Cc2ccccc2)c(=O)n1Cc1ccc(-c2ccccc2-c2noc(=O)[nH]2)cc1` [Example 3, 5-benzyl-2-(ethylthio)-6-methyl-3-{[2′-(5-oxo-4,5-dihydro-1,2,4-oxadiazol-3-yl)biphenyl-4-yl]methyl}pyrimidin-4(3H)-one], the activation at 1 µM at PPARγ was found to be 57.1%. Further, at human AT1 receptor, the IC50 was 2.5 nM. Take `CCOc1nc(C)c(Cc2ccccc2)c(=O)n1Cc1ccc(-c2ccccc2-c2noc(=O)[nH]2)cc1` [Example 4, 5-benzyl-2-ethoxy-6-methyl-3-{[2′-(5-oxo-4,5-dihydro-1,2,4-oxadiazol-3-yl)biphenyl-4-yl]methyl}pyrimidin-4(3H)-one]: at PPARγ, the activation at 1 µM came out at 35.8%. Also, the concentration for half-maximal inhibition (IC50) at human AT1 receptor came out at 1.9 nM.

Turning to `CCCc1nc(C)c(CC2CCCCO2)c(=O)n1Cc1ccc(-c2ccccc2-c2noc(=O)[nH]2)cc1` (stereo not drawn) [Example 7, 6-methyl-3-{[2′-(5-oxo-4,5-dihydro-1,2,4-oxadiazol-3-yl)biphenyl-4-yl]methyl}-2-propyl-5-(tetrahydro-2H-pyran-2-ylmethyl)pyrimidin-4(3H)-one], the activation at 1 µM at PPARγ was found to be 42.6%. Further, the half-maximal inhibitory concentration (IC50) at human AT1 receptor turned out to be 1.4 nM.

With `CCCc1nc(C)c(-c2ccc(OC(C)C)cc2)c(=O)n1Cc1ccc(-c2ccccc2-c2noc(O)n2)cc1` [Example 28, 5-(4-isopropoxyphenyl)-6-methyl-3-{[2′-(5-oxo-4,5-dihydro-1,2,4-oxadiazol-3-yl)biphenyl-4-yl]methyl}-2-propylpyrimidin-4(3H)-one], the activation at 1 µM at PPARγ came to 16.2%. Further, the IC50 at human AT1 receptor worked out at 1.6 nM. For `CCCCc1nc(C)n(Cc2cccs2)c(=O)c1Cc1ccc(-c2ccccc2-c2noc(=O)[nH]2)cc1` [Example 32, 6-butyl-2-methyl-5-{[2′-(5-oxo-4,5-dihydro-1,2,4-oxadiazol-3-yl)biphenyl-4-yl]methyl}-3-(2-thienylmethyl)pyrimidin-4(3H)-5 one], in that order: 55.6% and 1.3 nM. For `CCCCc1nc(C)n(CC(=O)C(C)(C)C)c(=O)c1Cc1ccc(-c2ccccc2-c2noc(=O)[nH]2)cc1` [Example 37, 6-butyl-3-(3,3-dimethyl-2-oxobutyl)-2-methyl-5-{[2′-(5-oxo-4,5-dihydro-1,2,4-oxadiazol-3-yl)biphenyl-4-yl]methyl}pyrimidin-4(3H)-one], in that order: 29.8% and 1.3 nM. For `CCCCc1nc(C)n(CC23CC4CC(CC(C4)C2)C3)c(=O)c1Cc1ccc(-c2ccccc2-c2noc(=O)[nH]2)cc1` [Example 42, 3-(1-adamantylmethyl)-6-butyl-2-methyl-5-{[2′-(5-oxo-4,5-dihydro-1,2,4-oxadiazol-3-yl)biphenyl-4-yl]methyl}pyrimidin-4(3H)-one], in that order: 61.2% and 1.5 nM. Turning to `CCCCc1nc(C)n(Cc2ccccc2)c(=O)c1Cc1ccc(-c2ccccc2-c2noc(=O)[nH]2)cc1` [Example 47, 3-benzyl-6-butyl-2-methyl-5-{[2′-(5-oxo-4,5-dihydro-1,2,4-oxadiazol-3-yl)biphenyl-4-yl]methyl}pyrimidin-4(3H) -one], the activation at 1 µM at PPARγ came out at 61.2%. Also, the IC50 at human AT1 receptor is 1.4 nM. Turning to `CCCCc1nc(C)n(CC2CCCCC2)c(=O)c1Cc1ccc(-c2ccccc2-c2noc(=O)[nH]2)cc1` [Example 48, 6-butyl-3-(cyclohexylmethyl)-2-methyl-5-{[2′-(5-oxo-4,5-dihydro-1,2,4-oxadiazol-3-yl)biphenyl-4-yl]methyl}pyrimidin-4(3H)-one], the activation at 1 µM on PPARγ was found to be 68.8%. Besides, at human AT1 receptor, the IC50 amounted to 1.8 nM. For `CCCCc1nc(C)n(Cc2ccccn2)c(=O)c1Cc1ccc(-c2ccccc2-c2noc(=O)[nH]2)cc1` [Example 50, 6-butyl-2-methyl-5-{[2′-(5-oxo-4,5-dihydro-1,2,4-oxadiazol-3-yl)biphenyl-4-yl]methyl}-3-(pyridin-2-ylmethyl)pyrimidin-4(3H)-one], in that order: 34.3% and 1.7 nM. As to `CCCc1nc(C(F)F)n(-c2ccc(OC)cc2)c(=O)c1Cc1ccc(-c2ccccc2-c2noc(=O)[nH]2)cc1` [Example 410], the IC50 at human AT1 receptor is 2.1 nM.
